Experimental findings from PubChem BioAssay (NCI) are described below.

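1) Cells in 96-well plates. 2) Compound, 48 h, 5 concentrations. 3) Linear interpolation between surrounding doses. 4) Unreached endpoint = highest concentration. GI50: concentration for 50% inhibition of growth. At the TGI there is no net growth.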

Holding throughout (assay): NCI anticancer screen, dose series, 48 h
The subject of assay [1] is M14 melanoma.
In assay [2] the test system is SF-539 CNS.
Assay [3] relates to T-47D breast.
The subject of assay [4] is HCC-2998 colon.
The test system of assay [5] is SW-620 colon.
Assay [6] concerns NCI/ADR-RES ovarian.
In assay [7] the test system is MDA-MB-231 breast.
Assay [8] concerns HOP-92 NSCLC.
For assay [9], the system named is SF-295 CNS.
The subject of assay [10] is RPMI-8226 leukemia.

For `CN(C)C=Nc1c(I)cc(I)c(CCC(=O)O)c1I`, the GI50 in assay [1], in assay [2], in assay [3], in assay [4], in [5] and in [6] was greater than 100000 nM each time. Moreover, the GI50 is greater than 100000 nM in assay [7], 45.4 µM in [8], greater than 100000 nM in assay [9] and greater than 100000 nM in assay [10]. In addition, the TGI in assay [1], in assay [2], in assay [3], in assay [4], in assay [5] and in assay [6] was greater than 100 µM in each case. In addition, the TGI in assay [7], in assay [8], in [9] and in assay [10] was greater than 100 µM in each case.

Consider `CCCN(CCC)c1ccc(C=O)c(C)c1`, for which the GI50 was 44800 nM in [1]; greater than 70500 nM in assay [2]; 20800 nM in assay [3]; 52400 nM in assay [4]; 45900 nM in [5]; 36100 nM in assay [6]. The GI50 is 41300 nM in [7], 16.4 µM in [8], 29100 nM in assay [9] and 69400 nM in assay [10]. For the same compound, the TGI was greater than 100 µM in assay [1]; greater than 100 µM in assay [2]; 98.9 µM in assay [3]; greater than 100 µM in [4]; greater than 100 µM in [5]; greater than 100 µM in assay [6]. The TGI in [7] was greater than 100 µM; in assay [8] it was 64.7 µM; in assay [9] it was greater than 100 µM; in [10] it was greater than 100 µM.

As to `CCNCCNc1cc(-c2ccc(C(F)(F)F)cc2)c(C#N)c2nc3cc(Cl)c(Cl)cc3n12`, the GI50 in assay [1] was 1590 nM; in [2], 1740 nM; in assay [3], 1940 nM; in assay [4], 2340 nM; in assay [5], 306 nM; in assay [6], 1490 nM. Further, the GI50 in assay [7] was 1510 nM; in assay [8] it was 1.41 µM; in assay [9], 1730 nM; in assay [10] it was 1710 nM. Besides, the TGI was 3.12 µM in assay [1]; 3.23 µM in [2]; 3.78 µM in assay [3]; 4.14 µM in assay [4]; 1.14 µM in [5]; 3.33 µM in [6]. The TGI in assay [7] was found to be 3.1 µM; in assay [8] it was 2.96 µM; in [9] it was 3.2 µM; in assay [10] it was 3.85 µM.

For `COc1ccc(OC)c(/C=C/c2ccnc3ccccc23)c1`, the TGI turned out to be 17.8 µM in assay [1]; 0.671 µM in assay [2]; 29.5 µM in assay [3]; 12.9 µM in assay [4]; 16.2 µM in assay [5]; 1.56 µM in assay [6]. The TGI amounted to 9.44 µM in assay [7], 18.1 µM in assay [8], 4.89 µM in assay [9] and 26.3 µM in assay [10].

Consider `C=C1C(=O)C2=CC1CCC(=O)C1(C)CCC(OC(C)=O)C(C)(C)C1CC2O` (stereo not given), for which the TGI was 10.4 µM in assay [1]; 5.19 µM in assay [2]; 21.8 µM in assay [3]; 4 µM in assay [4]; greater than 100 µM in [5]; 24.9 µM in [6]. Moreover, the TGI was 18 µM in assay [7], 20.3 µM in assay [8], 25.6 µM in assay [9] and greater than 100 µM in assay [10].

Regarding `N#Cc1c(N/N=C\c2ccc(Cl)cc2)nc(N)nc1N1CCOCC1`, the GI50 in [1] is 67400 nM; in assay [2], 75100 nM; in assay [3], greater than 100000 nM; in [4], 22000 nM; in assay [5] it was 47100 nM; in assay [6] it was 43100 nM. Further, the GI50 is 25300 nM in assay [7], 36.3 µM in assay [8], 33200 nM in assay [9] and 16400 nM in [10]. Moreover, the TGI in [1], in assay [2], in assay [3], in assay [4], in assay [5] and in [6] was greater than 100 µM in each case. Besides, the TGI in assay [7] was greater than 100 µM; in assay [8], greater than 100 µM; in [9], greater than 100 µM; in assay [10] it was 44.3 µM.

For `O=C1CC(N2C(=O)/C(=C/C(Cl)=C\c3ccc([N+](=O)[O-])cc3)SC2=S)C(=O)N1c1ccc(O)cc1` (stereo not given), the GI50 is 1460 nM in [1]; 1720 nM in assay [2]; 2450 nM in assay [3]; 1480 nM in [4]; 684 nM in assay [5]; 2130 nM in [6]. The GI50 in assay [7] was 2140 nM; in assay [8] it was 1.62 µM; in assay [9] it was 1310 nM; in [10] it was 295 nM. The TGI is 3.31 µM in assay [1]; 3.81 µM in assay [2]; 15.8 µM in assay [3]; 2.92 µM in assay [4]; 2.28 µM in [5]; 12.1 µM in assay [6]. For the same compound, the TGI in [7] was found to be 5.06 µM; in [8], 3.72 µM; in assay [9], 2.7 µM; in assay [10], 4.36 µM.

Turning to `CN(C)c1ccccc1[CH2][Ga]([Cl])[CH2]c1ccccc1N(C)C`, the GI50 in assay [1] was 1300 nM; in assay [2] it was 1700 nM; in assay [3], 1390 nM; in [4] it was 1230 nM; in assay [5], 1760 nM; in assay [6] it was 1870 nM. The GI50 in assay [7] was 1310 nM; in [8], 0.416 µM; in assay [9], 964 nM; in [10], 651 nM. Moreover, the TGI in assay [1] is 2.85 µM; in assay [2] it was 3.5 µM; in assay [3], 3.78 µM; in assay [4], 2.88 µM; in assay [5] it was 3.92 µM; in assay [6] it was 4.22 µM. Moreover, the TGI in [7] was determined as 2.71 µM; in assay [8], 1.58 µM; in assay [9], 2.48 µM; in assay [10] it was 3.63 µM.
